Data from patent US20250340551A1, “SMALL MOLECULE MODULATORS OF STAT6” (Gilead Sciences, Inc., priority 2024, published 2025).

Key:
human STAT6 = human STAT6 (Homo sapiens (Human), UniProt P42226); assay: Surface plasmon resonance assay (Biacore 8K, binding to immobilized STAT6); details: human STAT6 aa122-658, N-terminal His-tag, CM5 chip, 25° C.; geometric mean; read-out: STAT6 SPR Kd
In short: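 Run at 25° C with His-tagged STAT6 aa122-658 (insect-cell expressed) amine-coupled to a CM5 chip, reference-subtracted, in PBS-P+ with 2% DMSO. Multi-cycle kinetics: 60 sec. contact, up to 300 sec. dissociation. Affinity fitted from late report-point binding isotherms, with Rmax both free and fixed to theoretical 1:1.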

[1] = system: Eotaxin-3 (CCL26) release in human whole blood stimulated with IL-4; assay: Human whole blood eotaxin-3 assay (IL-4 stimulated, Eotaxin-3 release); assay type: cell-based; details: for Emax: 48 h
In short: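 Lithium-heparin blood preincubated 2 h at 37° C with 4-fold compound dilutions (0.5% DMSO, triplicates), then stimulated with 400 pM recombinant human IL-4 for 48 h. Eotaxin-3 in plasma supernatant measured by MSD immunoassay.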

Chain of human STAT6 (P42226 122-658): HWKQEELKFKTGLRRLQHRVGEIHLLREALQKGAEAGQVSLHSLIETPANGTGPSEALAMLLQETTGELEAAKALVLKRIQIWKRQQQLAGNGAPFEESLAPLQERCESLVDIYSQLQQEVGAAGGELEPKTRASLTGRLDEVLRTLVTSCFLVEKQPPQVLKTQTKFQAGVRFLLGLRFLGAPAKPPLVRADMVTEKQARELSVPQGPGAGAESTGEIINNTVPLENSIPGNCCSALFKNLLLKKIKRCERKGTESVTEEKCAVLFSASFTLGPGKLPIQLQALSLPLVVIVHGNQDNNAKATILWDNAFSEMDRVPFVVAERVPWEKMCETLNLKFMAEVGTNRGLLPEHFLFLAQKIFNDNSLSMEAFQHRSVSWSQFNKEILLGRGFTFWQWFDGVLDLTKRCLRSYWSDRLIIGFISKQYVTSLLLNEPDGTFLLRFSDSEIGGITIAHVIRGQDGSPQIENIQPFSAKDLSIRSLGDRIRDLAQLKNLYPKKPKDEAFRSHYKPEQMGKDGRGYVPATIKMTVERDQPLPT

Compound	Kd (human STAT6)	EC50 ([1]; Homo sapiens, Hec50, 48 h)	Emax ([1]; Homo sapiens)	EC50 ([1]; human whole blood, 400 pM recombinant human IL-4, 48 h, EC50 provided for compounds with >80% Emax, geometric mean)
CNc1ccc(-c2ccnc3c2cc(CN2CCC(c4ccc(C(=O)N(C)C)cc4C)CC2)n3C)nn1 [Example 1p2, N,N,3-Trimethyl-4-[1-[[1-methyl-4-[6-(methylamino)pyridazin-3-yl]pyrrolo[2,3-b]pyridin-2-yl]methyl]-4-piperidyl]benzamide]	70.1 nM	14100 nM		
CNc1ccc(-c2ccnc3c2cc(CN2CCN(c4ccc(C(=O)N(C)C)cc4C)CC2)n3C)nn1 [Example 1p3, N,N,3-Trimethyl-4-[4-[[1-methyl-4-[6-(methylamino)pyridazin-3-yl]pyrrolo[2,3-b]pyridin-2-yl]methyl]piperazin-1-yl]benzamide]	19.2 nM	232 nM		
CNc1ccc(-c2ccnc3c2cc(CN2CC=C(c4ccc(C(=O)N(C)C)cc4C)CC2)n3C)nn1 [Example 1p6, N,N,3-Trimethyl-4-[1-[[1-methyl-4-[6-(methylamino)pyridazin-3-yl]pyrrolo[2,3-b]pyridin-2-yl]methyl]-3,6-dihydro-2H-pyridin-4-yl]benzamide]	22 nM	723 nM		
CC(=O)Nc1ccc(-c2ccnc3c2cc(CN2CC[C@@H](c4ccc(C(=O)N(C)C)cc4)[C@@H](F)C2)n3C)cc1 [Example 1r6, N,N-dimethyl-4-[(3R,4S)-1-[[4-(4-acetamidophenyl)-1-methyl-pyrrolo[2,3-b]pyridin-2-yl]methyl]-3-fluoro-4-piperidyl]benzamide]	39.9 nM		51.2%	
CNc1ccc(-c2ccnc3c2cc(CN2CCC(c4ccc(C(=O)N(C)C)cc4)CC2=O)n3C)cn1 (stereo not drawn) [Example 1s2, N,N-Dimethyl-4-[1-[[1-methyl-4-[6-(methylamino)-3-pyridyl]pyrrolo[2,3-b]pyridin-2-yl]methyl]-2-oxo-4-piperidyl]benzamide]	35.8 nM		54.4%	
CNc1ccc(-c2ccnc3c2cc(CN2CC=C(c4ccc(C(=O)N(C)C)cc4C)CC2)n3C)cn1 [Example 1s8, N,N,3-Trimethyl-4-[1-[[1-methyl-4-[6-(methylamino)-3-pyridyl]pyrrolo[2,3-b]pyridin-2-yl]methyl]-3,6-dihydro-2H-pyridin-4-yl]benzamide]	33.8 nM	958 nM		
CNc1ccc(-c2ccnc3c2cc(CN2CC=C(c4c(C)cc(C(=O)N(C)C)cc4C)CC2)n3C)cn1 [Example 1s10, N,N,3,5-Tetramethyl-4-[1-[[1-methyl-4-[6-(methylamino)-3-pyridyl]pyrrolo[2,3-b]pyridin-2-yl]methyl]-3,6-dihydro-2H-pyridin-4-yl]benzamide]	40.4 nM	205 nM		
CNc1ccc(-c2ccnc3c2cc(CN2CC=C(c4ncc(C(=O)N(C)C)cc4C)CC2)n3C)cn1 [Example 1s12, N,N,5-Trimethyl-6-[1-[[1-methyl-4-[6-(methylamino)-3-pyridyl]pyrrolo[2,3-b]pyridin-2-yl]methyl]-3,6-dihydro-2H-pyridin-4-yl]pyridine-3-carboxamide]	32.1 nM	4960 nM		
CNc1ccc(-c2ccnc3c2cc(CN2CCC(c4c(C)cc(C(=O)N(C)C)cc4C)CC2)n3C)cn1 [Example 1s13, N,N,3,5-Tetramethyl-4-[1-[[1-methyl-4-[6-(methylamino)-3-pyridyl]pyrrolo[2,3-b]pyridin-2-yl]methyl]-4-piperidyl]benzamide]	28.8 nM	480 nM		
CNc1ccc(-c2ccnc3c2cc(CN2CCN(c4ccc(C(=O)N(C)C)cc4C)CC2)n3C)cn1 [Example 1s14, N,N,3-Trimethyl-4-[4-[[1-methyl-4-[6-(methylamino)-3-pyridyl]pyrrolo[2,3-b]pyridin-2-yl]methyl]piperazin-1-yl]benzamide]	28.9 nM		37.2%	
CNc1ccc(-c2ccnc3c2cc(CN2CCC(c4ccc(C(=O)N(C)C)cc4F)CC2)n3C)cn1 [Example 1s30, 3-Fluoro-N,N-dimethyl-4-(1-((1-methyl-4-(6-(methylamino)pyridin-3-yl)-1H-pyrrolo[2,3-b]pyridin-2-yl)methyl)piperidin-4-yl)benzamide]	22.1 nM	2580 nM		
CNc1ccc(-c2ccnc3c2cc(CN2CCC(c4ccc(C(=O)N(C)C)cc4)CC2)n3C)[n+]([O-])c1 [Example 1u2, N,N-Dimethyl-4-[1-[[1-methyl-4-[5-(methylamino)-1-oxido-pyridin-1-ium-2-yl]pyrrolo[2,3-b]pyridin-2-yl]methyl]-4-piperidyl]benzamide]	44.9 nM	328 nM		
CNc1ccc(-c2ccnc3c2cc(CN2CC=C(c4ccc(C(=O)N(C)C)cc4C)CC2)n3C)[n+]([O-])c1 [Example 1u3, N,N,3-Trimethyl-4-[1-[[1-methyl-4-[5-(methylamino)-1-oxido-pyridin-1-ium-2-yl]pyrrolo[2,3-b]pyridin-2-yl]methyl]-3,6-dihydro-2H-pyridin-4-yl]benzamide]	16 nM	104 nM		
CNc1ccc(-c2ccnc3c2cc(CN2CCC(c4ccc(C(=O)N(C)C)cc4)CC2)n3S(C)(=O)=O)cn1 [Example 1x1, N,N-Dimethyl-4-[1-[[4-[6-(methylamino)-3-pyridyl]-1-methylsulfonyl-pyrrolo[2,3-b]pyridin-2-yl]methyl]-4-piperidyl]benzamide]	29.5 nM	1110 nM		
N,N-Dimethyl-4-[1-[[1-methyl-4-[6-(methylamino)-3-pyridyl]pyrrolo[2,3-b]pyridin-2-yl]methyl]-4-piperidyl]benzamide [Example 1k37]	16 nM			7160 nM
